# Source: patent US20250332173A1, “COMPOUNDS AND METHODS FOR MODULATING NUCLEIC ACID SPLICING” (REMIX THERAPEUTICS INC., priority 2021, published 2025)
# Assays:
# [1] = system: MYB; assay: HiBiT protein abundance assay, MYB HiBiT K562 cell line; format: cell-based, human; settings: HiBiT lytic detection, modified K562 cells, 24 hours, top dose 10 μM; read-out: Effect on protein abundance, MYB (IC50)
# Procedure, shortened: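 K562 knock-in lines with endogenous HiBiT-tagged target, 10,000 cells/well in IMDM + FBS, treated 24 h at 37° C with 10-point 3-fold dilutions (top 10 μM final; DMSO ≤0.25%). Lytic Nano-Glo HiBiT luminescence normalized to untagged K562 baseline and DMSO controls; IC50 = concentration giving 50% abundance via four-parameter fit.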
# [2] = system: Target C; assay: HiBiT protein abundance assay, Target C HiBiT K562 cell line; format: cell-based; settings: Homo sapiens; HiBiT lytic detection, modified K562 cells, 24 hours, top dose 10 μM; read-out: Effect on protein abundance, Target C (IC50)
# Procedure, shortened: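 Knock-in K562 cells carrying HiBiT-tagged Target C, 10,000 per well, treated 24 h at 37 °C with 10-point threefold dilutions (top 10 μM final, ≤0.25% DMSO). Lytic HiBiT luminescence read; response normalised to unmodified K562 and DMSO controls, four-parameter fit interpolated at 50% for IC50.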
smiles,measurement,setting,value
Cc1c(O)c(-c2ncc3c(=O)n([C@@H]4C[C@H]5COC[C@@H](C4)N5)ccc3n2)cc2cn(C)nc12 [Compound 1471],IC50,[1],100 to 1000 nM
same,IC50,[2],100 to 1000 nM
